Measured values taken from article PMC10266688 (PLOS ONE, 2023).

Tests used:
GAPDH, RPN2 and USP14 = test: CETSA control proteins, SKOV3 cells; type: binding, human; conditions: SKOV3, 10 μM, 30 min
Protocol: Cells were incubated in a thermal cycler (Biorad IQ5 Cycler) over a gradient of temperatures for 4 min, followed by incubation at 25°C for 3 min, then snap-frozen in liquid nitrogen and subjected to three freeze–thaw cycles. Samples were briefly vortexed and centrifuged at 16,000 x g for 20 min at 4°C. Cleared cell lysates were resolved in SDS–PAGE followed by immunoblotting for RPN13, GAPDH, RPN2 and USP14.
Cellular Thermal Shift Assay (CETSA) assesses thermal stabilization of proteins upon ligand binding and is used extensively to detect drug interactions by implementing a thermal shift in the cellular context. The assay involves drug treatment of cells, heating to denature and precipitate proteins in a thermocycler with a specified gradient of temperatures, cell lysis by freeze/thaw cycles, and the separation of cell debris and aggregates from the soluble protein fraction by centrifugation. Whereas unbound proteins denature and precipitate at elevated temperatures, ligand-bound proteins remain in solution. The proportion of individual proteins remaining in solution can be detected by quantitative Western blotting. […]. There was no impact on other control proteins tested, including a house keeping protein (GAPDH) and proteasome subunits (RPN2 and USP14). […]
Resuspended cells were aliquoted into PCR strips. […]

[1] = mouse, in vivo, iv, 20 mg/kg
Protocol: The mice were divided into three groups consisting of three female CD1 mice each. […] Terminal blood sampling for hematological and serum biochemical analysis was performed on Day 7 of the study, 24 h after the last dosing. […] Terminal bleeding and euthanasia were performed on Day 7, 24 h after the third dosing. Blood collection was carried out after 6 h fasting. Animals were injected IP with 2,2,2-tribromoethanol (200 mg/kg) and the blood was collected from orbital sinuses into dry microtainers without anticoagulant. For the serum collection, the tubes with collected blood were held at RT for 15–60 min after blood drawing to form a clot, and then were centrifuged at 9000 rpm for 20 min at 4°C. The collected serum was frozen within 60–80 min after blood drawing and was stored at -20°C for further clinical chemistry analysis. For the hematological study, 25 μL of fresh blood was quickly mixed with an equal volume of 0.36% solution of K2EDTA in saline. Assessment of the hematological parameters was performed using the BIO TE hematology analyzer MCL-3124 and consumable reagents (Cormay) within 2 h of the blood draw. For clinical chemistry analyses, ASAT, ALAT, ALP, LDH, GGT, CK, Creatinine, Urea and TP were determined in the serum using commercial kits according to the manufacturer’s instructions.

ES2 cells = test: Seahorse assay (OCR, ECAR)
[2] = Microsomal stability, mouse liver microsomes; type: in vitro ADME; conditions: for % Drug Remaining NADPH Neg, Mouse Liver Microsomes / % Drug Remaining NADPH Pos, Mouse Liver Microsomes: 10 μM
Protocol: An incubation mixture with, and without NADPH-generating system, as well as a neat solution prepared without microsomes and NADPH-generating system was used. […] All reactions were initiated with the addition of Up284. Incubations were performed in glass tubes maintained at 37°C in a shaker bath. At 0, 30, and 60 minutes, 10 μL samples were withdrawn from the reaction mixture, and 0.5 mL of acetonitrile containing internal standard was added to each. Samples were vortex-mixed and subjected to centrifugation for 5 min at 1430 x g. A 10 μL aliquot of the supernatant was injected onto the LC-MS/MS instrument for qualitative analysis using a temperature-controlled autosampling device operating at 5°C.

[3] = target: T1, 42kDa cellular protein (RPN13) (Homo sapiens, UniProt Q16186); test: Competition for RA190B binding in HeLa cell lysate; conditions: HeLa lysate pre-treated with compound (5 μM) 45 min 4°C, then RA190B (20 μM)
T1 construct: endogenous in cells; host or cells: HeLa cell lysate
T1 sequence (Q16186 2-407): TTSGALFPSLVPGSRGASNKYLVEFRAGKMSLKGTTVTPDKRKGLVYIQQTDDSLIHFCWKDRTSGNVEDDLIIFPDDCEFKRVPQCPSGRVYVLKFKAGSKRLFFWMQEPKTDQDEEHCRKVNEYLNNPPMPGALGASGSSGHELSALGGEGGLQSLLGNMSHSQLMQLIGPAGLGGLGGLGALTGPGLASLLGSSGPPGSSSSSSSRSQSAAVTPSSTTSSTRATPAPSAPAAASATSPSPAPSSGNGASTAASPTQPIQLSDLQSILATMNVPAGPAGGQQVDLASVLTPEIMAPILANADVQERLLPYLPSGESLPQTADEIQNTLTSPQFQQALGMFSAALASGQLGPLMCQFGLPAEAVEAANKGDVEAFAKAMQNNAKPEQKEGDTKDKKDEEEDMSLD
Protocol: NEM (1 mM) used as positive control.

[4] = Plasma stability, mouse EDTA plasma; type: in vitro ADME; conditions: for % Drug Remaining, Plasma (Mouse EDTA): 10 μM, 37°C
HeLa cells = test: MTT cytotoxicity assay, HeLa cells, 72 h; type: cell-based; conditions: Homo sapiens, 72 h treatment
CHOP10 mRNA = test: Q-PCR of CHOP10 mRNA; conditions: 1 μM, 4 h
TC1-OVA cells = test: Antigen presentation (H-2Kb/[…]) by TC1-OVA cells, flow cytometry; type: cell-based, mouse; conditions: 0.25 μM, 12 h
Protocol: TC1 cells stably expressing Ovalbumin (TC1-OVA) were plated (125,000 cells/well) in a 6 well plate in 2 mL RPMI complete medium.
C) TC1-OVA cells were plated (125,000 cells/well) in a 6 well plate in 2 mL/well in complete medium.

N#Cc1ccc(/C=C2/C(=O)/C(=C/c3ccc(C#N)cc3)C23CCNCC3)cc1 [Up284]
thermal stabilization of GAPDH, RPN2 and USP14 (GAPDH, RPN2 and USP14): no impact | other blood parameters vs vehicle [1]: did not significantly change | proton leakage (ES2 cells; ES2, 0.5 μM): did not impact | oxygen consumption rate (OCR), basal and FCCP-stimulated, and ATP production (ES2 cells; ES2, 0.5 μM, 12 h): significant decrease in OCR | extracellular acidification rate (ECAR) (ES2 cells; ES2, after 24 h treatment): trend for reduction | additional degradation in the presence of NADPH, mouse liver microsomes [2]: ~ 10% | degradation in mouse liver microsomes without NADPH [2]: ~ 50% | % Drug Remaining NADPH Neg, Mouse Liver Microsomes ([2]; 0 min): 100% | % Drug Remaining NADPH Pos, Mouse Liver Microsomes ([2]; 0 min): 100% | % Drug Remaining NADPH Neg, Mouse Liver Microsomes ([2]; 30 min): 60% | % Drug Remaining NADPH Pos, Mouse Liver Microsomes ([2]; 30 min): 45% | % Drug Remaining NADPH Neg, Mouse Liver Microsomes ([2]; 60 min): 51% | % Drug Remaining NADPH Pos, Mouse Liver Microsomes ([2]; 60 min): 38% | competition for RA190B binding to the 42KDa cellular protein [3]: competed | % Drug Remaining, Plasma (Mouse EDTA) ([4]; 0 min): 100% | % Drug Remaining, Plasma (Mouse EDTA) ([4]; 30 min): 84% | % Drug Remaining, Plasma (Mouse EDTA) ([4]; 60 min): 94% | degradation in murine plasma ([4]; after incubating for 1 hour): < 10% | IC50 (HeLa cells): 40 nM | CHOP10 mRNA levels (CHOP10 mRNA): rapid upregulation | MHC class I antigen presentation (SIINFEKL on H-2Kb) (TC1-OVA cells): enhanced MHC class I antigen presentation
